From ChEMBL document CHEMBL1137128, “Quantitative structure-activity relationship analysis of a series of 2,3-diaryl benzopyran analogues as novel selective cyclooxygenase-2 inhibitors” (Bioorg Med Chem Lett, 2004)

Molecular target: T1, Prostaglandin G/H synthase 2 (Mus musculus, UniProt Q05769)
T1 sequence (Q05769 whole entry): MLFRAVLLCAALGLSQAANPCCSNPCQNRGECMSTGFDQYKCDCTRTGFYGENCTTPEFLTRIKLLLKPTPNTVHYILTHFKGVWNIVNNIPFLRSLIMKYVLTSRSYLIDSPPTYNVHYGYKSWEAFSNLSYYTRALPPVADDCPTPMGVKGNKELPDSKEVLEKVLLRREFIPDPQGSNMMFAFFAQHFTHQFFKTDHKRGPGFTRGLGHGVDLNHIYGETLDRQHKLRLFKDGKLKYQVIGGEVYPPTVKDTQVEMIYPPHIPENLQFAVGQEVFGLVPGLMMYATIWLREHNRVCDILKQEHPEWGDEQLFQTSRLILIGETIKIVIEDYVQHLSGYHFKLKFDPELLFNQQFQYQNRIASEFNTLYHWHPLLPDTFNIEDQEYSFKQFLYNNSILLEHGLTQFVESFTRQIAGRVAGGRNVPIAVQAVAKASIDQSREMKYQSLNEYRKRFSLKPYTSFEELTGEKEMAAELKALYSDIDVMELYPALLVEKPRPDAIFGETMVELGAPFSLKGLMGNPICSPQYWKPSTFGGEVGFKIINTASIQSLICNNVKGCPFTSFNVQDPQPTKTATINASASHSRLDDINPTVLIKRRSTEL
Assay: In vitro inhibitory activity against Prostaglandin G/H synthase 2 from mouse peritoneal macrophages

- IC50: 331 nM
SMILES: CS(=O)(=O)c1ccc(-c2oc3ccccc3c(=O)c2-c2cc3ccccc3s2)cc1
